Measurements reported in patent US8592422B2, “Bicyclic triazole and pyrazole lactams as allosteric modulators of mGluR5 receptors” (Vanderbilt University, priority 2010, dated 2013).
“And” between values parts separate entries of the source, which are not always exact repeats. Equal values may be shown once. Read-outs that look alike come from different tables or passages of the source.

Columns and labels:
human mGluR5a receptor = target: T1, human mGluR5a receptor (Homo sapiens, UniProt P41594); test: Cell-based functional Ca2+ mobilization assay (FDSS), potentiation of glutamate EC20 response; conditions: for EC50: HEK cells transfected with human mGluR5 (H10H or H12H), in presence of EC20 glutamate
T1 construct: cDNA subcloned into pcDNA3.1(-)
How it was run: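 HEK293A cells stably expressing human mGluR5a (H10H or H12H clones), plated overnight in glutamate-glutamine-free medium, loaded with Ca2+-sensitive dye (e.g. Fluo-4) and read on FDSS.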

[1] = maximum % effect in concentration-response curve, as percent of response to maximally effective glutamate

T1 sequence (P41594 21-1180 isoform P41594-2 limits assumed): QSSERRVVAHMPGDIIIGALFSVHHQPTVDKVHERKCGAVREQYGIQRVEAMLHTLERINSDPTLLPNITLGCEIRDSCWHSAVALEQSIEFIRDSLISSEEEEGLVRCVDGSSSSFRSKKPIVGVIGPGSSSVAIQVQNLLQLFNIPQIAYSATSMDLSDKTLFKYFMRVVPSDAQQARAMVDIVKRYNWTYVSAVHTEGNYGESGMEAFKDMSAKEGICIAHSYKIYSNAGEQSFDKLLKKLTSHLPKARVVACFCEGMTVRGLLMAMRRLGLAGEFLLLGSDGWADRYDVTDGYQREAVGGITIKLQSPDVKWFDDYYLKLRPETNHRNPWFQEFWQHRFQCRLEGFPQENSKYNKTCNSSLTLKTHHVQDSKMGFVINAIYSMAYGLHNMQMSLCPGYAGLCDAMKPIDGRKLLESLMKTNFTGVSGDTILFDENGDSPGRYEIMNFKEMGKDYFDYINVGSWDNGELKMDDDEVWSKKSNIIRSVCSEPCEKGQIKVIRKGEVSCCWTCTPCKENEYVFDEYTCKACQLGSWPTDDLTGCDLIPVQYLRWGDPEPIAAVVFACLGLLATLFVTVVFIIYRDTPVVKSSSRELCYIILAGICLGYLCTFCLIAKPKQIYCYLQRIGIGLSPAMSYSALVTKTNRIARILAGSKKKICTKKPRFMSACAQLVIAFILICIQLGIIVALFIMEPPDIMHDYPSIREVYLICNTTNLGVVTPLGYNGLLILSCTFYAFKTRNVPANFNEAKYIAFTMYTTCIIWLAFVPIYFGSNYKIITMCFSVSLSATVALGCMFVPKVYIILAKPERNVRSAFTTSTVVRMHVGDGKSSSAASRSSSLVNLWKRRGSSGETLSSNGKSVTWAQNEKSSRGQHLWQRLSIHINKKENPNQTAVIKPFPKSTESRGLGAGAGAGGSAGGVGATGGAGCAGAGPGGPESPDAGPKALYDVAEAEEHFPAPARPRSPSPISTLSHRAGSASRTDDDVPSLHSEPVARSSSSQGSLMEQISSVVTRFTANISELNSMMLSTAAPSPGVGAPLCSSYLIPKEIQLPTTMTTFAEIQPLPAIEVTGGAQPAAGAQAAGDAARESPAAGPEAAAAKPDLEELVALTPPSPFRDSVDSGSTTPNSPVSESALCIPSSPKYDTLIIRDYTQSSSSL

| Structure (SMILES) | EC50 (human mGluR5a receptor; read-out: EC50) | Emax (human mGluR5a receptor; [1]) | melting point | EC50 (human mGluR5a receptor; read-out: pEC50 (converted)) | Emax (%) (human mGluR5a receptor; [1]) | EC50 (human mGluR5a receptor; EC50 (nM)) |
| --- | --- | --- | --- | --- | --- | --- |
| O=C1c2cc(COc3cncc(F)c3)nn2CCN1CC1CC1 [Example 171] | > 10000 nM | 51% | 110.7 °C | – | – | – |
| O=C1c2cc(COc3ccc(F)cn3)nn2CCN1c1ccc(F)cc1 [Example 181] | > 10000 nM | 52% | 239.4 °C | – | – | – |
| Cc1ccc(OCc2cc3n(n2)CCN(c2ccc(F)cc2)C3=O)nc1 [Example 183] | > 30200 nM | 15% | 236.2 °C | – | – | – |
| Cc1cccnc1OCc1cc2n(n1)CCN(c1ccc(F)cc1)C2=O [Example 185] | > 10000 nM | 51% | 270.1 °C | – | – | – |
| Cc1cnccc1OCc1cc2n(n1)CCN(c1ccc(F)cc1)C2=O [Example 189] | 4900 nM | 45% | 168.3 °C | – | – | – |
| O=C1c2cc(COc3ccccc3F)nn2CCN1c1ccc(F)cc1 [Example 190] | – | 66% | 183.3 °C | – | – | 145 nM |
| O=C1c2cc(COc3ncccn3)nn2CCN1c1ccc(F)cc1 [Example 194] | > 10000 nM | 50% | 179.5 °C | – | – | – |
| COc1ccnc(OCc2cc3n(n2)CCN(c2ccc(F)cc2)C3=O)c1 [Example 195] | > 10000 nM | 40% | > 300 °C | – | – | – |
| O=C1c2cc(COc3cnccn3)nn2CCN1c1ccc(F)cc1 [Example 197] | > 10000 nM | 58% | 144.8 °C | – | – | – |
| Cc1cncc(OCc2cc3n(n2)CCN(c2ccc(F)cc2)C3=O)n1 [Example 200] | > 30200 nM | 21% | 156.6 °C | – | – | – |
| CC1CN(c2ccc(F)cc2)C(=O)c2cc(COc3cccc(C#N)c3)nn21 (stereo not shown) [Example 241] | > 30200 nM | 21% | 110.2 °C | – | – | – |
| Cc1cccc(OCc2cc3n(n2)C(C)CN(c2ccc(F)cc2)C3=O)c1 (stereo not shown) [Example 242] | > 30200 nM | 21% | 70.2 °C | – | – | – |
| CN(C)c1cccc(OCc2cc3n(n2)CCN(c2ccc(F)cc2)C3=O)n1 [Example 310] | > 30200 nM | 26% | 153.8 °C | – | – | – |
| CN(C)c1ccnc(OCc2cc3n(n2)CCN(c2ccc(F)cc2)C3=O)c1 [Example 312] | > 30200 nM | 25% | > 300 °C | – | – | – |
| CN(C)c1cccc(N2CCn3nc(COc4cccc(F)c4)cc3C2=O)n1 [Example 316] | – | 74% | 121.2 °C | 40.7 nM | – | – |
| Cc1ccc(N2CCn3nc(COc4ccccc4)cc3C2=O)s1 [Example 319] | – | 68% | 194.5 °C | 28.8 nM | – | – |
| Cn1cnc(N2CCn3nc(COc4ccccc4)cc3C2=O)c1 [Example 321] | > 30200 nM | 23% | 203.7 °C | – | – | – |

Continued, in another order:

| EC50 (human mGluR5a receptor; read-out: EC50) | Emax (human mGluR5a receptor; [1]) | melting point | EC50 (human mGluR5a receptor; read-out: pEC50 (converted)) | Emax (%) (human mGluR5a receptor; [1]) | Structure (SMILES) | EC50 (human mGluR5a receptor; EC50 (nM)) |
| --- | --- | --- | --- | --- | --- | --- |
| 1260 nM | 34% | > 300 °C | – | – | Cc1cc(OCc2cc3n(n2)CCN(c2ccc(F)cc2)C3=O)ccn1 [Example 174] | – |
| 115 nM | 61% | > 300 °C | – | – | O=C1c2cc(COc3cccc(F)c3)nn2CCN1c1ccc(F)cn1 [Example 178] | – |
| 151 nM | 60% | > 300 °C | – | – | O=C1c2cc(COc3ccc(F)cc3)nn2CCN1c1ccc(F)cn1 [Example 179] | – |
| 2190 nM | 60% | 165 °C | – | – | O=C1c2cc(COc3ncccc3F)nn2CCN1c1ccc(F)cc1 [Example 187] | – |
| 427 nM | 57% | 132.8 °C | – | – | Cc1ccccc1OCc1cc2n(n1)CCN(c1ccc(F)cc1)C2=O [Example 191] | – |
| 437 nM | 53% | 202.6 °C | – | – | N#Cc1ccnc(OCc2cc3n(n2)CCN(c2ccc(F)cc2)C3=O)c1 [Example 193] | – |
| 407 nM | 69% | 143.9 °C | – | – | COc1cc(N2CCn3nc(COc4ccccn4)cc3C2=O)ccc1F [Example 204] | – |
| 1510 nM | 67% | 109.8 °C | – | – | Cc1cccc(N2CCn3nc(COc4ccccn4)cc3C2=O)n1 [Example 206] | – |
| 470 nM | 69% | > 300 °C | – | – | Cc1ccc(N2CCn3nc(COc4ccccn4)cc3C2=O)cc1 [Example 218] | – |
| 350 nM | 63% | 130.4 °C | 355 nM | – | COc1cccc(N2CCn3nc(COc4ccc(F)cc4)cc3C2=O)c1 [Example 220] | – |
| 190 nM | 66% | 117.3 °C | – | – | COc1ccccc1N1CCn2nc(COc3ccc(F)cc3)cc2C1=O [Example 221] | – |
| 98 nM | 63% | 148.2 °C | 100 nM | – | Cc1ccccc1N1CCn2nc(COc3ccc(F)cc3)cc2C1=O [Example 223] | – |
| 380 nM | 66% | 267.4 °C | – | – | COc1ncccc1N1CCn2nc(COc3ccc(F)cc3)cc2C1=O [Example 229] | – |
| 525 nM | 54% | 181.3 °C | – | – | N#Cc1cccc(OCc2cc3n(n2)CCN(c2ccc(F)cn2)C3=O)c1 [Example 233] | – |
| 224 nM | 69% | 176.6 °C | – | – | CNc1nc(N2CCn3nc(COc4ccccc4)cc3C2=O)ncc1F [Example 279] | – |
| 355 nM | 70% | 215.1 °C | – | – | CN(C)c1cncc(N2CCn3nc(COc4ccccc4)cc3C2=O)n1 [Example 280] | – |
| 1100 nM | 64% | 190.2 °C | – | – | CN(C)c1ccnc(N2CCn3nc(COc4ccccc4)cc3C2=O)c1 [Example 282] | – |
| 30 nM | 76% | 143.7 °C | 36.3 nM and 29.5 nM | 69% | CN(C)c1cccc(N2CCn3nc(COc4ccccc4)cc3C2=O)n1 [Example 286] | – |
| 603 nM | 67% | 164.8 °C | – | – | CN(C)c1ccc(N2CCn3nc(COc4ccccc4)cc3C2=O)nc1 [Example 287] | – |
| 54 nM | 63% | 117.9 °C | – | – | Cc1ccc(N(C)C)nc1N1CCn2nc(COc3ccccc3)cc2C1=O [Example 291] | – |
| 76 nM | 71% | 116.3 °C | – | – | Cc1cc(F)cc(N2CCn3nc(COc4ccccc4)cc3C2=O)c1 [Example 297] | – |
| 110 nM | 64% | 127.8 °C | – | – | COc1cc(F)cc(N2CCn3nc(COc4ccccc4)cc3C2=O)c1 [Example 299] | – |
| 3550 nM | 56% | 143.2 °C | – | – | O=C1c2cc(COc3ccccc3)nn2CCN1c1nccc(N2CCCC2)n1 [Example 309] | – |
| 240 nM | 72% | > 300 °C | – | – | COc1nc(N2CCn3nc(COc4ccc(F)cc4)cc3C2=O)ncc1F [Example 318] | – |
| 280 nM | 61% | 266.9 °C | – | – | COc1cnc(N2CCn3nc(COc4ccccc4)cc3C2=O)nc1 [Example 353] | – |
| 3630 nM | 55% | 212.7 °C | – | – | O=C1c2cc(COc3ccc(O)cc3)nn2CCN1c1ccc(F)cn1 [Example 355] | – |
